Active and inactive are the calls of the source.
Tests used:
Assay type in all cases: functional, cell-based
[1] = test system: MRC5; assay: Compound was tested for antiviral activity against HSV-2 (MS) strain at a concentration of 100 ug/mL in MRC-5 (human fibroblast) cells; IA denotes inactive
[2] = test system: MRC5; assay: Compound was tested for antiviral activity against HSV-1 (SC16 strain)at a concentration of 100 ug/mL in MRC-5 (human fibroblast) cells; IA denotes inactive
[3] = test system: MRC5; assay: Compound was tested for antiviral activity against CMV (cytomegalovirus) (AD169) at a concentration of 100 ug/mL in MRC-5 (human fibroblast) cells; IA denotes inactive
[4] = test system: MRC5; assay: Compound was tested for antiviral activity against VZV (Ellen) strain at a concentration of 100 ug/mL in MRC-5 (human fibroblast) cells; IA denotes inactive

Measured: Antiviral activity

Nc1nc(O)c2ncn(C3CC3(CO)CO)c2n1 (centres undefined)
inactive: all assays above

Reference: ChEMBL document CHEMBL1125994, “Synthesis of 9-[2,2-bis(hydroxymethyl)cycloprop-1-yl]guanine as a potential antiviral agent” (Bioorg Med Chem Lett, 1991)
